Laboratory results: patent publication US10941121B2 (AZIENDA OSPEDALIERA UNIVERSITARIA SENESE, priority 2015, dated 2021)
Where two headings read alike, the source gives them in different places.

Tests used:
[1] = system: Hepatitis C Virus (HCV) replicon system; experiment: HCV replicon system, luciferase method in LucUbiNeo-ET cells; conditions: for EC50: Hepatitis C virus, 48 h, read-out: EC50 (μM) HCV replicon system
DDX3 Helicase [2] = biological target: T1, DDX3 Helicase (Homo sapiens, UniProt O00571); experiment: biochemical
T1 sequence (O00571 whole entry): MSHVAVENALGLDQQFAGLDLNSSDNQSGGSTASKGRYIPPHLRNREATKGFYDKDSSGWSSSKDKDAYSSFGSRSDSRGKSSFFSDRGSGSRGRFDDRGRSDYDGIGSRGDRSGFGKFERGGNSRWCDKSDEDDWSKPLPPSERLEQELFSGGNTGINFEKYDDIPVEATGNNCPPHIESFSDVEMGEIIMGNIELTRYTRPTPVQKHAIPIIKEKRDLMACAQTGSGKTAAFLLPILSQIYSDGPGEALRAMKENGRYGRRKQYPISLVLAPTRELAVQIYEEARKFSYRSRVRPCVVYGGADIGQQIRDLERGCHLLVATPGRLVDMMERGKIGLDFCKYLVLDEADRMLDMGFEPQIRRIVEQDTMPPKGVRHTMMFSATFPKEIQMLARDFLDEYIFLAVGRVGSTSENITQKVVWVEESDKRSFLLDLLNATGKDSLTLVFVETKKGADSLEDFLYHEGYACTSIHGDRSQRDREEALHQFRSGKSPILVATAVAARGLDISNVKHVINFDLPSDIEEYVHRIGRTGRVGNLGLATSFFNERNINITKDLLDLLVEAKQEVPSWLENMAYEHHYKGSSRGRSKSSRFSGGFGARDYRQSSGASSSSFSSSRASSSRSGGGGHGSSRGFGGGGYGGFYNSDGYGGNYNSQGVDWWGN

[3] = Cytotoxicity in the JEV cell culture system; conditions: hamster
[4] = Cytotoxicity, MTT method in LUNET cells; format: cell-based; conditions: human; MMT method in LUNET cells; read-out: CC50 (μM) non-infected cells
Description: Toxicity (CC50) was analysed in the Lunet/HuH7 cells by the addition of 10 μL of MTT (3-(4,5-dimethylthiazol-2-yl)-2,5-diphenyltetrazolium bromide) per well. After 4 h of incubation at 37° C. in a humidified atmosphere with 5% CO2, the amount of formazan produced was quantified spectrophotometrically at 550/620 nm (C. Pannecouque et al, Nature protocol 2008; 3 (3): 427-434). […] These assays were done in duplicate.

JEV strain (NJ2008) = experiment: JEV infectious cell culture system, plaque formation assay in BHK-21 cells; conditions: Japanese encephalitis virus, BHK-21, read-out: JEV EC50
HIV (PBMC) = experiment: HIV infectious cell culture system in PBMC, HIV-1 RNA in supernatant; conditions: Human immunodeficiency virus 1, PBMC, 72 h, read-out: EC50 HIV (PBMC) 72 h
[5] = Parallel Artificial Membrane Permeability Assay (PAMPA); format: in vitro ADME; conditions: for Papp at 5 h, 0.5 mM: PAMPA, phosphatidylcholine in dodecane, pH 7.4, 5 h, room temperature, read-out: PAMPA Papp *10^−6 (cm/s) GI; for PAMPA membrane retention (RM %): value in brackets in the PAMPA cell
Description: Parallel Artificial Membrane Permeability Assay (PAMPA). Donor solution (0.5 mM) was prepared by diluting 1 mM dimethylsulfoxide (DMSO) compound stock solution using phosphate buffer (pH 7.4, 0.025 M). Filters were coated with 5 μL of a 1% (w/v) dodecane solution of phosphatidylcholine prepared from CHCl3 solution 10% w/v, for intestinal permeability. Donor solution (150 μL) was added to each well of the filter plate. To each well of the acceptor plate were added […] (50% DMSO in phosphate buffer). All compounds were tested in three different plates on different days. The sandwich was incubated for 5 h at room temperature under gentle shaking. After the incubation time, the plates were separated, and samples were taken from both receiver and donor sides and analyzed using LC with UV detection at 280 nm.
LC analysis were performed with a Varian Prostar HPLC system (Varian Analytical Instruments, USA) equipped with a binary pump with a manual injection valve and model Prostar 325 UV-VIS Detector.
Permeability (Papp) for PAMPA was calculated according to the following equation, obtained from Wohnsland and Faller and Sugano et al. equation with some modification in order to obtain permeability values in cm s^−1,
where VA is the volume in the acceptor well, VD is the volume in the donor well (cm^3), A is the “effective area” of the membrane (cm^2), t is the incubation time (s) and r the ratio between drug concentration in the acceptor and equilibrium concentration of the drug in the total volume (VD+VA). Drug concentration is estimated by using the peak area integration.
Membrane retentions (%) were calculated according to the following equation: […]
where r is the ratio between drug concentration in the acceptor and equilibrium concentration, D, A, and Eq represented drug concentration in the donor, acceptor and equilibrium solution, respectively.

[6] = system: HIV-1 wild-type reference strain NL4-3; experiment: HIV-1 phenotypic assay, MT-2 cells then TZM-bl cells, luciferase; format: cell-based; conditions: Human immunodeficiency virus 1, NL43; first cycle in MT-2 cells, additional round in TZM-bl cells
[7] = system: human liver microsome (HLM); experiment: Microsomal Stability Assay; conditions: human liver microsomes, 37 °C, 60 min, compound 50 μM; percentage of not metabolized compound
Water Solubility Assay = format: physicochemical; conditions: thermodynamic from solid
Description: Water Solubility Assay. Each solid compound (1 mg) was added to 1 mL of water. The samples were shaked in a shaker bath at room temperature for 24-36 h. The suspensions were filtered through a 0.45 μm nylon filter (Acrodisc), and the solubilized compound determined by LC-MS-MS assay. For each compound the determination was performed in triplicate.
For the quantification was used an LC-MS system consisted of a Varian apparatus (Varian Inc) including a vacuum solvent degassing unit, two pumps (212-LC), a Triple Quadrupole MSD (Mod. 320-LC) mass spectrometer with ES interface and Varian MS Workstation System Control Vers. 6.9 software. […] The flow rate was 0.2 mL min^−1 and injection volume was 5 μL. The instrument operated in positive mode and parameters were: detector 1850 V, drying gas pressure 25.0 psi, desolvation temperature 300.0° C., nebulizing gas 40.0 psi, needle 5000 V and shield 600 V. Nitrogen was used as nebulizer gas and drying gas. Collision induced dissociation was performed using Argon as the collision gas at a pressure of 1.8 mTorr in the collision cell.

[8] = Cytotoxicity in PBMC, CellTiter 96 MTS viability assay; format: cell-based; conditions: human, human primary PBMCs
[9] = system: EBOV expressing GFP (EBOV/GFP); format: cell-based, Ebola virus
DDX3 Helicase [10] = biological target: T1, DDX3 Helicase; conditions: for IC50: read-out: ID50 (μM) against DDX3 Helicase, n.a. = compound not active
[11] = Cytotoxicity in Huh7 cells, nuclei counts; conditions: human
[12] = experimental aqueous solubility, read-out: LogS (converted)
[13] = room temperature, 24-36 h, read-out: Aq. Solub.

Work on `CCOCc1cn(-c2ccc(NC(=O)Nc3ccccc3C)cc2)nn1` [Compound 20e] yielded an EC50 [1] of 8.55 µM, an IC50 (DDX3 Helicase [2]) of 0.94 µM and a CC50 [3] of over 50 µM. The CC50 [4] was 51.8 µM and the EC50 (JEV strain (NJ2008)) was 25 µM.
`CCCCn1nnc(-c2ccc(NC(=O)Nc3ccccc3C)cc2)n1` [Compound 49, 1-(4-(2-butyl-2H-tetrazol-5-yl)phenyl)-3-(o-tolyl)urea] gave an EC50 (HIV (PBMC)) of 9.5 µM, an EC50 [1] of 7.16 µM and a Papp at 5 h, 0.5 mM [5] of 7.57 ×10⁻⁶ cm/s. The “PAMPA membrane retention (RM %)” value [5] was 24.8%, the IC50 (DDX3 Helicase [2]) was 4.9 µM and the EC50 [6] was 5.2 µM. The “Metabolic stability (Sability %)” value [7] was 95.6%, the CC50 [3] was over 50 µM and the CC50 [4] was 11.2 µM. For the same compound, the EC50 (JEV strain (NJ2008)) was 7.1 µM, the solubility (Water Solubility Assay; [12]) was under 0.00316 µM and the solubility (Water Solubility Assay; [13]) was under 0.001 µg/mL. The CC50 at 24 h [8] was over 1000 µM, the CC50 at 48 h [8] was over 1000 µM and the CC50 at 72 h [8] was over 1000 µM.
In the case of `CCCCn1nnc(-c2ccc(NC(=O)Nc3ccccc3C(F)(F)F)cc2)n1` [Compound 51, 1-(4-(2-butyl-2H-tetrazol-5-yl)phenyl)-3-(2-(trifluoromethyl)phenyl)urea], the EC50 [1] is reported as 0.6 µM, the “Normalized % infected cells” value [9] is reported as 60% and the “effect on EBOV replication, in words” value [9] is reported as “able to affect EBOV replication”. It also gave an IC50 (DDX3 Helicase [2]) of 0.8 µM, an EC50 [6] of 5.5 µM and a CC50 [4] of 6.7 µM.
In the case of `CC(C)CCc1cn(-c2ccc(NC(=O)Nc3cccc(F)c3)cc2)nn1` [Compound 55b, 1-(3-fluorophenyl)-3-(4-(4-isopentyl-1H-1,2,3-triazol-1-yl)phenyl)urea], the “activity against HCV, in words” value [1] is reported as “best activity”, the EC50 [1] is reported as 0.2 µM and the EC50 [6] is reported as 1.8 µM. The CC50 [4] was 183 µM, the “DDX3 helicase activity compared with EI01D” value (DDX3 Helicase [10]; in words) was “approximately ten-fold more active” and the IC50 (DDX3 Helicase [10]) was 0.2 µM.
`CCOCc1cn(-c2ccc(NC(=O)Nc3cc(C(C)C)ccc3C)cc2)nn1` [Compound 55e, 1-(4-(4-(ethoxymethyl)-1H-1,2,3-triazol-1-yl)phenyl)-3-(5-isopropyl-2-methylphenyl) urea] showed an EC50 [1] of 1 µM, an IC50 (DDX3 Helicase [2]) of 0.9 µM and a CC50 [3] of over 50 µM. It also gave a CC50 [4] of 245 µM and an EC50 (JEV strain (NJ2008)) of 3.3 µM.
Work on `CC(C)CCc1cn(-c2ccc(NC(=O)Nc3cccc4cnccc34)cc2)nn1` [Compound 55f, 1-(4-(4-isopentyl-1H-1,2,3-triazol-1-yl)phenyl)-3-(isoquinolin-5-yl)urea] yielded an EC50 [1] of 0.9 µM, an IC50 (DDX3 Helicase [2]) of 0.5 µM and a CC50 [3] of over 50 µM. The CC50 [4] was over 312 µM and the EC50 (JEV strain (NJ2008)) was 32.8 µM.
`CCCCc1cn(-c2ccc(NC(=O)Nc3cc(OC4CCCC4)ccc3C)cc2)nn1` [Compound 55h, 1-(4-(4-butyl-1H-1,2,3-triazol-1-yl)phenyl)-3-(5-(cyclopentyloxy)-2-methylphenyl)urea] gave an IC50 (DDX3 Helicase [2]) of 0.1 µM and an EC50 [6] of 16.2 µM.
Work on `CCOCc1cn(-c2ccc(NC(=O)Nc3cccc(F)c3)cc2)nn1` [Compound 55o, 1-(4-(4-(ethoxymethyl)-1H-1,2,3-triazol-1-yl)phenyl)-3-(3-fluorophenyl)urea] yielded an EC50 [6] of 21.2 µM.
`O=[N+]([O-])c1cccc(S(=O)(=O)Nc2ccccc2O)c1` [Compound 58a, N-(2-hydroxy)-3-nitro-phenylbenzenesulfonamide] showed an EC50 [1] of 204 µM, an IC50 (DDX3 Helicase [2]) of 0.37 µM and a CC50 at 48 h ([11]; DENV CC50, Huh7 cells, DENV experiment) of 99.4 µM. It also gave a CC50 at 48 h ([11]; WNV CC50, Huh7 cells, WNV experiment) of 60.9 µM, an EC50 [6] of 20.2 µM and a CC50 [3] of over 50 µM. The CC50 [4] was 215 µM and the EC50 (JEV strain (NJ2008)) was 10 µM.
With `CCOCc1cn(-c2cccc(S(=O)(=O)Nc3ccccc3C(F)(F)F)c2)nn1` [Compound 66d, 3-(4-(ethoxymethyl)-1H-1,2,3-triazol-1-yl)-N-(2-(trifluoromethyl)phenyl) benzenesulfonamide] the EC50 (HIV (PBMC)) was 26 µM, the EC50 [1] was over 58.6 µM and the “Normalized % infected cells” value [9] was 80%. For the same compound, the “effect on EBOV replication, in words” value [9] was “able to affect EBOV replication”, the CC50 [3] was over 50 µM and the CC50 [4] was 58.6 µM. For the same compound, the EC50 (JEV strain (NJ2008)) was 6.1 µM, the IC50 (DDX3 Helicase [10]) was 0.4 µM and the CC50 at 24 h [8] was 450 µM. It also gave a CC50 at 48 h [8] of 357 µM and a CC50 at 72 h [8] of 703 µM.
`COc1cc(NC(=O)Nc2ccccc2C(F)(F)F)ccc1-n1cc(CCC(C)C)nn1` [Compound 80, 1-(4-(4-isopentyl-1H-1,2,3-triazol-1-yl)-3-methoxyphenyl)-3-(2-(trifluoromethyl)phenyl)urea] gave an IC50 (DDX3 Helicase [2]) of 0.4 µM and an EC50 [6] of 7.35 µM.
For `CCCCc1cn(-c2ccc(NC(=O)Nc3ccccc3C(F)(F)F)cc2F)nn1` [Compound 81, 1-(4-(4-butyl-1H-1,2,3-triazol-1-yl)-3-fluorophenyl)-3-(2-(trifluoromethyl)phenyl)urea], the EC50 [1] was 1.99 µM, the Papp at 5 h, 0.5 mM [5] was 7.22 ×10⁻⁶ cm/s and the “PAMPA membrane retention (RM %)” value [5] was 30.4%. For the same compound, the IC50 (DDX3 Helicase [2]) was 1 µM, the “Metabolic stability (Sability %)” value [7] was 94% and the CC50 [4] was 74.2 µM. The solubility (Water Solubility Assay; [12]) was 0.398 µM and the solubility (Water Solubility Assay; [13]) was 80.1 µg/mL.
With `CC(C)CCc1cn(-c2ccc(NC(=O)Nc3ccccc3C(F)(F)F)cn2)nn1` [Compound 86, 1-(6-(4-isopentyl-1H-1,2,3-triazol-1-yl)pyridin-3-yl)-3-(2-(trifluoromethyl)phenyl)urea] the IC50 (DDX3 Helicase [2]) was 1 µM and the EC50 [6] was 3 µM.
`CCCCc1cc(-c2ccc(NC(=O)Nc3ccccc3C(F)(F)F)cc2)no1` [Compound 102, 1-(4-(5-butylisoxazol-3-yl)phenyl)-3-(2-(trifluoromethyl)phenyl)urea] gave an EC50 [6] of 72.8 µM.
In the case of `CCCCc1nc(-c2ccc(NC(=O)Nc3ccccc3C(F)(F)F)cc2)no1` [Compound 106, 1-(4-(5-butyl-1,2,4-oxadiazol-3-yl)phenyl)-3-(2-(trifluoromethyl)phenyl)urea], the IC50 (DDX3 Helicase [2]) is reported as 0.1 µM and the EC50 [6] is reported as 2.2 µM.
For `CCCCc1nnc(-c2ccc(NC(=O)Nc3ccccc3C(F)(F)F)cc2)o1` [Compound 112, 1-(4-(5-butyl-1,3,4-oxadiazol-2-yl)phenyl)-3-(2-(trifluoromethyl)phenyl)urea], the IC50 (DDX3 Helicase [2]) was 1 µM and the EC50 [6] was 5.5 µM.
With `CCCCc1nc(-c2cccc(S(=O)(=O)Nc3ccccc3C(F)(F)F)c2)no1` [Compound 134, 3-(5-butyl-1,2,4-oxadiazol-3-yl)-N-(2-(trifluoromethyl)phenyl)benzenesulfonamide] the IC50 (DDX3 Helicase [2]) was 1 µM and the EC50 [6] was 3.1 µM.
